Reference: US7507727B2, “Substituted quinobenzoxazine analogs and methods of using thereof” (Cylene Pharmaceuticals, Inc., priority 2003, dated 2009)
Where two headings read alike, the source gives them in different places.

Columns and labels:
HeLa cells = assay: MTS cell proliferation and/or cytotoxicity assay; format: cell-based, Human
In short: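 HeLa cells seeded at 4,500 cells/well, exposed to compounds from day 1 for 3 days at 37 °C, 5% CO2. Viability by MTS/PMS (20:1) with 4 h incubation, absorbance at 490 nm. Values are concentrations giving 50% antiproliferative response.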

[1] = target: c-Myc template DNA (c-myc quadruplex); assay: Quadruplex binding / stop assay (Taq polymerase arrest, capillary electrophoresis)
[2] = Homo sapiens, HeLa, 72 h, concentration at which 50% of antiproliferative cell response is seen, 3 days incubation, read-out: MTS Data Hella
[3] = read-out: Stop Data c-Myc μM, concentration at which 50% of the DNA was arrested (arrested:full-length 1:1)
[4] = Homo sapiens, HeLa, HeLa cells, MTS, read-out: Hela MTS
[5] = read-out: S DATA, Table 1D, stop assay data

SMILES	IC50 (HeLa cells; [2]) [nM]	IC50 [1, 3] [µM]	IC50 (HeLa cells; concentration at which 50% of antiproliferative cell response is seen, 3 days incubation, read-out: MTS Data Hella) [nM]	IC50 (HeLa cells; [4]) [nM]	IC50 [1, 5] [µM]
O=C(NCCN1CCCC1)c1cn2c3cc4c(=O)c5ccccc5c(=O)c4cc3oc3c(NCCN4CCCC4)c(F)cc(c1=O)c32 [compound 568]	4100	0.22	–	–	–
CN(C)CCCCNc1c(F)cc2c(=O)c(C(=O)NCCC3CCCN3C)cn3c4cc5oc6cc([N+](=O)[O-])ccc6[nH]c5cc4oc1c23 (stereo not shown) [compound 569]	7800	0.18	–	–	–
CN1CCCC1CCNC(=O)c1cn2c3cc4oc5cc([N+](=O)[O-])ccc5[nH]c4cc3oc3c(NCCN4CCCC4)c(F)cc(c1=O)c32 (stereo not shown) [compound 570]	6800	0.18	–	–	–
CN1CCCC1CCNc1c(F)cc2c(=O)c(C(=O)NCCN3CCCC3)cn3c4cc5oc6cc([N+](=O)[O-])ccc6[nH]c5cc4oc1c23 (stereo not shown) [compound 571]	4800	0.18	–	–	–
CN1CCCC1CCNC(=O)c1cn2c3cc4oc5cc([N+](=O)[O-])ccc5[nH]c4cc3oc3c(NCCC4CCCN4C)c(F)cc(c1=O)c32 (stereo not shown) [compound 572]	4800	0.18	–	–	–
CN1CCN(CCCNC(=O)c2cn3c4c(c(N5CC[C@@H](NC(=O)CCNCCC6CCCN6C)C5)c(F)cc4c2=O)Oc2cc4c(cc2-3)oc2ccccc24)CC1 (stereo partly shown) [compound 573]	4500	0.18	–	–	–
CN(C)CCCCNC(=O)c1cn2c3cc4c(=O)c5ccccc5c(=O)c4cc3oc3c(NCCN4CCCC4)c(F)cc(c1=O)c32 [compound 574]	4000	0.18	–	–	–
CN1CCCC1CCNC(=O)c1cn2c3cc4c(cc3oc3c(NCCN5CCCC5)c(F)cc(c1=O)c32)c(=O)c1ccccc14 (stereo not shown) [compound 575]	2100	0.18	–	–	–
CN(C)CCCCNC(=O)c1cn2c3cc4c(cc3oc3c(NCCCCN(C)C)c(F)cc(c1=O)c32)c(=O)c1ccccc14 [compound 576]	2100	0.18	–	–	–
O=C(NCCN1CCCC1)c1cn2c3cc4c(cc3oc3c(NCCN5CCCC5)c(F)cc(c1=O)c32)c(=O)c1ccccc14 [compound 577]	1100	0.18	–	–	–
NC(N)=NCCCCNC(=O)c1cn2c3c(c(N4CC[C@@H](N)C4)c(F)cc3c1=O)Oc1cc3ccccc3cc1-2 [compound 578]	580	0.18	–	–	–
N[C@H]1CCN(c2c(F)cc3c(=O)c(C(=O)NCCN4CCOCC4)cn4c5cc6c(cc5oc2c34)c(=O)c2ccccc26)C1 [compound 579]	490	0.18	–	–	–
CN(C)CCCCNC(=O)c1cn2c3cc4c(cc3oc3c(N5CC[C@H](N)C5)c(F)cc(c1=O)c32)c(=O)c1ccccc14 [compound 580]	300	0.18	–	–	–
O=C(NCCN1CCCC1)c1cn2c3c(c(N4CC5CCCNC5C4)c(F)cc3c1=O)Oc1cc3ccccc3cc1-2 (stereo not shown) [compound 581]	–	0.18	300	–	–
CN1CCCC1CCNC(=O)c1cn2c3cc4c(cc3oc3c(N5CC[C@H](N)C5)c(F)cc(c1=O)c32)c(=O)c1ccccc14 (stereo partly shown) [compound 582]	280	0.18	–	–	–
N[C@H]1CCN(c2c(F)cc3c(=O)c(C(=O)NCCN4CCCC4)cn4c5cc6c(cc5oc2c34)c(=O)c2ccccc26)C1 [compound 583]	250	0.18	–	–	–
CN(C)CCCCNC(=O)c1cn2c3cc4c(cc3oc3c(NCCN5CCCC5)c(F)cc(c1=O)c32)c(=O)c1ccccc14 [compound 584]	190	0.18	–	–	–
O=C(NCCCN1CCOCC1)c1cn2c3cc4c(=O)c5ccccc5c(=O)c4cc3oc3c(NCCN4CCCC4)c(F)cc(c1=O)c32 [compound 591]	3300	0.13	–	–	–
CN1CCCC1CCNC(=O)c1cn2c3cc4c(=O)c5ccccc5c(=O)c4cc3oc3c(NCCN4CCCC4)c(F)cc(c1=O)c32 (stereo not shown) [compound 592]	3800	0.1	–	–	–
CN1CCN(CCCNC(=O)c2cn3c4c(c(N5CCC(N)C5)c(F)cc4c2=O)Oc2cc4c(cc2-3)oc2ccccc24)CC1 (stereo not shown) [compound 1467]	350	0.25	–	–	–
CN1CCCC1CCNC(=O)c1cn2c3c(c(NCCc4c[nH]cn4)c(F)cc3c1=O)Oc1cc3ccccc3cc1-2 (stereo not shown) [compound 1468]	350	0.375	–	–	–
CN1CCCC1CCNC(=O)c1cn2c3c(c(N4CCC(CCCC5CCNCC5)CC4)c(F)cc3c1=O)Oc1cc3ccccc3cc1-2 (stereo not shown) [compound 1494]	–	–	–	310	0.375
CN1CCCC1CCNC(=O)c1cn2c3c(c(N[C@@H]4CN5CCC4CC5)c(F)cc3c1=O)Oc1cc3ccccc3cc1-2 (stereo partly shown) [compound 1497]	–	–	–	390	0.5
CN1CCCC1CCNC(=O)c1cn2c3c(c(N4CCC(c5cnccn5)C4)c(F)cc3c1=O)Oc1cc3ccccc3cc1-2 (stereo not shown) [compound 1512]	–	–	–	3100	0.78
CN(C)CCCCNC(=O)c1cn2c3c(c(NCCN4CCCC4)ccc3c1=O)Oc1cc3ccccc3cc1-2 [compound 1520]	–	–	–	200	0.375
NC1CCN(c2ccc3c(=O)c(C(=O)NCCCN4CCOCC4)cn4c3c2Oc2cc3ccccc3cc2-4)C1 (stereo not shown) [compound 1557]	–	–	–	1500	0.75
